Measured values: ChEMBL document CHEMBL4266011 (ACS Med Chem Lett, 2018)

Key:
[1] = biological target: Carbonic anhydrase 14 (Homo sapiens, UniProt Q9ULX7)
Description: Inhibition of recombinant human CA14 preincubated for 15 mins prior to testing measured for 10 to 100 secs by phenol red based stopped-flow CO2 hydration assay

[2] = biological target: Carbonic anhydrase 9 (Homo sapiens, UniProt Q16790)
[3] = biological target: Carbonic anhydrase 6 (Homo sapiens, UniProt P23280)
Description: Inhibition of recombinant human CA6 preincubated for 15 mins prior to testing measured for 10 to 100 secs by phenol red based stopped-flow CO2 hydration assay

[4] = biological target: Carbonic anhydrase 4 (Homo sapiens, UniProt P22748)
Description: Inhibition of recombinant human CA4 preincubated for 15 mins prior to testing measured for 10 to 100 secs by phenol red based stopped-flow CO2 hydration assay

[5] = biological target: Carbonic anhydrase 12 (Homo sapiens, UniProt O43570)
Description: Inhibition of recombinant human CA12 preincubated for 15 mins prior to testing measured for 10 to 100 secs by phenol red based stopped-flow CO2 hydration assay

[6] = biological target: Carbonic anhydrase 3 (Homo sapiens, UniProt P07451)
Carbonic anhydrase 3, sequence (P07451 whole entry): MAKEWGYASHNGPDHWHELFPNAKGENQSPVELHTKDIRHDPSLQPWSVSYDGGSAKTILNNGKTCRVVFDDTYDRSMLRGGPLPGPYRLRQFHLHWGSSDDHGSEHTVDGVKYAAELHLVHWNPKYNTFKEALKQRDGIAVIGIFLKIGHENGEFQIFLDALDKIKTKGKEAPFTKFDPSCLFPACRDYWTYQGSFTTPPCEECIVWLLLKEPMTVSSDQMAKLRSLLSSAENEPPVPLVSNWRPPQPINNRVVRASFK
Description: Inhibition of recombinant human CA3 preincubated for 15 mins prior to testing measured for 10 to 100 secs by phenol red based stopped-flow CO2 hydration assay

[7] = biological target: Carbonic anhydrase 5B, mitochondrial (Homo sapiens, UniProt Q9Y2D0)
Carbonic anhydrase 5B, mitochondrial, sequence (Q9Y2D0 whole entry): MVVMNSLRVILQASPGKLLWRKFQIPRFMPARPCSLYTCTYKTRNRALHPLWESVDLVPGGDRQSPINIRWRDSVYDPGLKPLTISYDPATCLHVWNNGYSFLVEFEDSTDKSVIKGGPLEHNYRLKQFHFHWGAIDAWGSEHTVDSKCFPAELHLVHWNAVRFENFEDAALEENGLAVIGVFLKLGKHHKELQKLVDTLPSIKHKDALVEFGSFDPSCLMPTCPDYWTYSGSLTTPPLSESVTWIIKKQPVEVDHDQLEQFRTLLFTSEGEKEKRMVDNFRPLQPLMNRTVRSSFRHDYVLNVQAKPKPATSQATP
Description: Inhibition of recombinant human CA5b preincubated for 15 mins prior to testing measured for 10 to 100 secs by phenol red based stopped-flow CO2 hydration assay

[8] = biological target: Carbonic anhydrase 5A, mitochondrial (Homo sapiens, UniProt P35218)
Carbonic anhydrase 5A, mitochondrial, sequence (P35218 whole entry): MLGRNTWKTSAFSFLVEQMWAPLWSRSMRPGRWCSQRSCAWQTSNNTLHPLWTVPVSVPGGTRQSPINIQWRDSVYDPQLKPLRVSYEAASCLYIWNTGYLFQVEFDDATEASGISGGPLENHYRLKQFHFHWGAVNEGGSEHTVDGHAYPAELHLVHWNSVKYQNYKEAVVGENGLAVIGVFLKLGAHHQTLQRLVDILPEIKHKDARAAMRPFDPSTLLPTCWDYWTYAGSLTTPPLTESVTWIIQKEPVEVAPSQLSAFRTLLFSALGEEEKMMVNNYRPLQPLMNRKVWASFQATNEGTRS
Description: Inhibition of recombinant human CA5a preincubated for 15 mins prior to testing measured for 10 to 100 secs by phenol red based stopped-flow CO2 hydration assay

[9] = biological target: Carbonic anhydrase 13 (Homo sapiens, UniProt Q8N1Q1)
Carbonic anhydrase 13, sequence (Q8N1Q1 whole entry): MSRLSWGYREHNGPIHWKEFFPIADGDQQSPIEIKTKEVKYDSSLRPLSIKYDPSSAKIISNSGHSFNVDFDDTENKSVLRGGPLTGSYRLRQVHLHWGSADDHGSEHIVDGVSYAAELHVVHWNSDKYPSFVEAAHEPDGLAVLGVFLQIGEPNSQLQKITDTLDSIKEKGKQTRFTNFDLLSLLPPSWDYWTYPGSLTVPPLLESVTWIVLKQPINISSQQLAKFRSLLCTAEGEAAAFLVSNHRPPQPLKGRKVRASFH
Description: Inhibition of recombinant human CA13 preincubated for 15 mins prior to testing measured for 10 to 100 secs by phenol red based stopped-flow CO2 hydration assay

[10] = biological target: Carbonic anhydrase 7 (Homo sapiens, UniProt P43166)
Carbonic anhydrase 7, sequence (P43166 whole entry): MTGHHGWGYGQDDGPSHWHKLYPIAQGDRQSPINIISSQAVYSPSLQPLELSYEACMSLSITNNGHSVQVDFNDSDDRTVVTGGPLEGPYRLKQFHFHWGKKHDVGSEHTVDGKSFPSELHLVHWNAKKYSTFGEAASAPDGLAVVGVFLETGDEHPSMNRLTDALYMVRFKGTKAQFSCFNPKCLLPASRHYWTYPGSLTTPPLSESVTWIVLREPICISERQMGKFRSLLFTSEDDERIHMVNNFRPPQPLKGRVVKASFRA
Description: Inhibition of recombinant human CA7 preincubated for 15 mins prior to testing measured for 10 to 100 secs by phenol red based stopped-flow CO2 hydration assay

Carbonic anhydrase 4, sequence (P22748 whole entry): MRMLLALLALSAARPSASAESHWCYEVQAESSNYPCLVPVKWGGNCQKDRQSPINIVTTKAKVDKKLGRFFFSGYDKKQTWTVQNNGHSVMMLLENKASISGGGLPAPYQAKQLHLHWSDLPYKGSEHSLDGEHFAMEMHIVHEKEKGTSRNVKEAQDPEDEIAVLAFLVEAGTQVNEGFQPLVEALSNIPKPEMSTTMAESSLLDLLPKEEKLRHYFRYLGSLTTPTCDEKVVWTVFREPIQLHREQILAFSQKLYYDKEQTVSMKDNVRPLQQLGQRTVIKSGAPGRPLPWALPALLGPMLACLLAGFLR
Carbonic anhydrase 6, sequence (P23280 whole entry): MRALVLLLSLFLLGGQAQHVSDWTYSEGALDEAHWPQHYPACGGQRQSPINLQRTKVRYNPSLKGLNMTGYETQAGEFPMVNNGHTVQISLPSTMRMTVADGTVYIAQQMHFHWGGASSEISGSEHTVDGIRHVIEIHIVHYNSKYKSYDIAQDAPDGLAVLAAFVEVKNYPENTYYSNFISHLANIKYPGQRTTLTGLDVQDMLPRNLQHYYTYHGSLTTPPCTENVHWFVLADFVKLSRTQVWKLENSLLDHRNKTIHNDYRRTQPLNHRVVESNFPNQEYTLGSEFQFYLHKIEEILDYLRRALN
Carbonic anhydrase 14, sequence (Q9ULX7 whole entry): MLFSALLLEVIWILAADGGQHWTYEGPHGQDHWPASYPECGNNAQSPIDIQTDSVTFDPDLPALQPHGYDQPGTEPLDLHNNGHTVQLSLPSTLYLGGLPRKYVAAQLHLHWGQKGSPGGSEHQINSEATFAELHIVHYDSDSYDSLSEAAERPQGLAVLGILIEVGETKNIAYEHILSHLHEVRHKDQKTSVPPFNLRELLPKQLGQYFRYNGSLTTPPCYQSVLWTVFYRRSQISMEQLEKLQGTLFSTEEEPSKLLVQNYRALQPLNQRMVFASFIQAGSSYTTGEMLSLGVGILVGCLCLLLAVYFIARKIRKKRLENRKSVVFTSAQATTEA
Carbonic anhydrase 12, sequence (O43570 whole entry): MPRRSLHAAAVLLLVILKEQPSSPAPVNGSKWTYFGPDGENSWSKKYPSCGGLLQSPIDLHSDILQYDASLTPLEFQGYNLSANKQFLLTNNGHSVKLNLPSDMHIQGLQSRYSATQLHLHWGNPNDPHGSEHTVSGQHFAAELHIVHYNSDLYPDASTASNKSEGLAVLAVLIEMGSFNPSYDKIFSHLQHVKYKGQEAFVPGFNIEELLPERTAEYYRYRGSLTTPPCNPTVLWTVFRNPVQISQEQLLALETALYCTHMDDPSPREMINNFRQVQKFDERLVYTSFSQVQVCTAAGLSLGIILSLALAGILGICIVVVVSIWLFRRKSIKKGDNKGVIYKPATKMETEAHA

## NC(N)=Nc1nc(CSCCC(N)=NS(N)(=O)=O)cs1 [FAMOTIDINE]
[1]
  Ki: 677 nM
[2]
  Ki: 126 nM
[3]
  Ki: 98.2 nM
[4]
  Ki: 939 nM
[5]
  Ki: 45.3 nM
[6]
  Ki: > 10000 nM
[7]
  Ki: 5330 nM
[8]
  Ki: 1430 nM
[9]
  Ki: 172 nM
[10]
  Ki: 3 nM
